Test systems include COLO 205 colon; HCT-15 colon; HL-60(TB) leukemia; IGROV1 ovarian; NCI-H522 lung; SF-268 CNS; SK-MEL-28 melanoma; SK-MEL-5 melanoma; T-47D breast; UO-31 renal.
Common to all, as to experiment: growth of human tumour cells (NCI), 48 h

The structures appear in SMILES notation.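 Where inhibition never reached the appropriate level, the endpoint shown equals the highest concentration tested. Otherwise, values were interpolated linearly from a five-concentration, 48-hour dose response in 96-well plates. GI50 is the concentration that inhibits growth by half. TGI is the concentration that stops growth completely.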

For `N#CSc1c[nH]c2ccc(/C=C/C(=O)/C=C(/C=C/c3ccc4[nH]cc(SC#N)c4c3)OB(F)F)cc12`, the GI50 is 0.652 µM in the experiment on COLO 205 colon; 0.249 µM in the experiment with HCT-15 colon; 0.949 µM in the experiment with HL-60(TB) leukemia; 0.352 µM with IGROV1 ovarian; 0.212 µM with NCI-H522 lung; 1.12 µM with SF-268 CNS. Also, the GI50 was 0.498 µM in the experiment with SK-MEL-28 melanoma, 1.37 µM in the experiment on SK-MEL-5 melanoma, 0.791 µM in the experiment with T-47D breast and 0.212 µM in the experiment with UO-31 renal. The TGI in the experiment with COLO 205 colon was 3.52 µM; in the experiment with HCT-15 colon, 1.09 µM; with HL-60(TB) leukemia, 4.18 µM; with IGROV1 ovarian, 1.37 µM; in the experiment with NCI-H522 lung it was 0.653 µM; with SF-268 CNS it was 2.8 µM. The TGI amounted to 2.29 µM with SK-MEL-28 melanoma, 2.93 µM with SK-MEL-5 melanoma, 8.6 µM with T-47D breast and 0.808 µM with UO-31 renal.

Regarding `CN(C)C/C=C/C(=O)Nc1cc2c(Nc3ccc(F)c(Cl)c3F)ncnc2cc1OCCOC(F)F`, the GI50 is 1.03 µM in the experiment on COLO 205 colon; 0.491 µM in the experiment with HCT-15 colon; 1.74 µM with HL-60(TB) leukemia; less than 0.01 µM with IGROV1 ovarian; less than 0.0152 µM with NCI-H522 lung; 0.71 µM with SF-268 CNS. The GI50 is 2.29 µM with SK-MEL-28 melanoma, 1.6 µM with SK-MEL-5 melanoma, less than 0.0127 µM in the experiment with T-47D breast and less than 0.01 µM with UO-31 renal. Further, the TGI was 3.55 µM in the experiment on COLO 205 colon; 2.96 µM in the experiment with HCT-15 colon; 6.96 µM in the experiment with HL-60(TB) leukemia; 0.39 µM in the experiment with IGROV1 ovarian; 1.35 µM with NCI-H522 lung; 3.89 µM with SF-268 CNS. Further, the TGI in the experiment on SK-MEL-28 melanoma came to 9.59 µM; in the experiment on SK-MEL-5 melanoma, 3.39 µM; in the experiment with T-47D breast, 0.458 µM; with UO-31 renal, 1.78 µM.

Consider `COc1ccc(-c2nc(C(=O)c3ccccc3)n(CC(=O)c3ccccc3)c2-c2ccc(OC)cc2)cc1`, for which the GI50 in the experiment with COLO 205 colon, with HCT-15 colon, in the experiment with HL-60(TB) leukemia, in the experiment on IGROV1 ovarian, in the experiment on NCI-H522 lung and in the experiment on SF-268 CNS was greater than 100 µM in each case. In addition, the GI50 in the experiment with SK-MEL-28 melanoma, with SK-MEL-5 melanoma, with T-47D breast and with UO-31 renal was greater than 100 µM in each case. Besides, the TGI with COLO 205 colon, in the experiment on HCT-15 colon, with HL-60(TB) leukemia, in the experiment with IGROV1 ovarian, with NCI-H522 lung and with SF-268 CNS was greater than 100 µM each time. Besides, the TGI in the experiment on SK-MEL-28 melanoma, in the experiment with SK-MEL-5 melanoma, in the experiment with T-47D breast and in the experiment on UO-31 renal was greater than 100 µM each time.

Regarding `Cc1cc(Nc2c3ccccc3nc3ccccc23)ccc1NS(C)(=O)=O`, the GI50 with COLO 205 colon is 2.44 µM; in the experiment on HCT-15 colon it was 4.12 µM; in the experiment on HL-60(TB) leukemia, 3.67 µM; with IGROV1 ovarian, 3.07 µM; with NCI-H522 lung, 3.3 µM; in the experiment on SF-268 CNS, 4.66 µM. For the same molecule, the GI50 was 5.4 µM in the experiment on SK-MEL-28 melanoma, 4.2 µM with SK-MEL-5 melanoma, 5.51 µM in the experiment with T-47D breast and 1.9 µM with UO-31 renal. Further, the TGI in the experiment on COLO 205 colon was found to be 6.35 µM; in the experiment on HCT-15 colon, 20.5 µM; with HL-60(TB) leukemia, 12.1 µM; in the experiment with IGROV1 ovarian, 11 µM; in the experiment on NCI-H522 lung, 13.1 µM; in the experiment with SF-268 CNS it was 19.2 µM. Besides, the TGI is 19.5 µM in the experiment on SK-MEL-28 melanoma, 16.6 µM with SK-MEL-5 melanoma, 24.5 µM with T-47D breast and 8.76 µM in the experiment with UO-31 renal.

With `COc1ccc(C[C@@H]2NC[C@@H](O)[C@@H]2OC(C)=O)cc1`, the GI50 in the experiment on COLO 205 colon is 2.04 µM; in the experiment with HL-60(TB) leukemia it was 1.72 µM; in the experiment on IGROV1 ovarian it was 0.367 µM; in the experiment with NCI-H522 lung it was 2.06 µM; in the experiment with SF-268 CNS, 4.37 µM; with SK-MEL-5 melanoma, 0.456 µM. Besides, in the experiment on UO-31 renal, the GI50 was 44.6 µM. The TGI in the experiment on HCT-15 colon is 0.19 µM; in the experiment with IGROV1 ovarian, 8.14 µM; with SK-MEL-28 melanoma it was 0.127 µM; in the experiment on T-47D breast it was 0.193 µM.

As to `O=[N+]([O-])/C=C/c1cc2ccccc2[nH]1`, the TGI in the experiment with COLO 205 colon came out at 32.7 µM; in the experiment with HCT-15 colon it was 53.6 µM; in the experiment on HL-60(TB) leukemia, 24.3 µM; with IGROV1 ovarian, 26.3 µM; with NCI-H522 lung it was 24.2 µM; with SF-268 CNS, 36.4 µM. The TGI in the experiment with SK-MEL-28 melanoma is 44 µM; with SK-MEL-5 melanoma, 28.2 µM; in the experiment on T-47D breast, 33.9 µM; with UO-31 renal it was 31.9 µM.

Regarding `CCn1cc(-c2ccnc3[nH]ccc23)c(-c2cccc(NC(=O)Nc3ccc(OCc4ccccc4)cc3)c2)n1`, the GI50 in the experiment with COLO 205 colon is 11.2 µM; in the experiment with HCT-15 colon, 6.28 µM; with HL-60(TB) leukemia it was 4.23 µM; in the experiment on IGROV1 ovarian, 18.1 µM; in the experiment with NCI-H522 lung, 2.98 µM; in the experiment on SF-268 CNS, greater than 19.7 µM. The GI50 in the experiment with SK-MEL-28 melanoma is 18.1 µM; in the experiment on SK-MEL-5 melanoma it was 13.5 µM; with T-47D breast, 6.65 µM; in the experiment on UO-31 renal, 15 µM. Further, the TGI is greater than 25 µM in the experiment on COLO 205 colon; greater than 25 µM with HCT-15 colon; 17.2 µM with HL-60(TB) leukemia; greater than 25 µM in the experiment on IGROV1 ovarian; greater than 25 µM in the experiment on NCI-H522 lung; greater than 25 µM in the experiment on SF-268 CNS. Also, the TGI in the experiment with SK-MEL-28 melanoma, in the experiment on SK-MEL-5 melanoma, in the experiment with T-47D breast and in the experiment on UO-31 renal was greater than 25 µM each time.

Consider `CN1CCN(c2cc(C(=O)Nc3cc4cc(-c5cnn(C)c5)ccc4cn3)ccn2)CC1`, for which the GI50 in the experiment on COLO 205 colon was 0.0673 µM; in the experiment on HCT-15 colon, 0.0666 µM; in the experiment with HL-60(TB) leukemia, 0.119 µM; in the experiment on IGROV1 ovarian, 0.0581 µM; in the experiment on NCI-H522 lung, 0.0472 µM; in the experiment with SF-268 CNS it was 0.2 µM. Further, the GI50 with SK-MEL-28 melanoma was 0.217 µM; with SK-MEL-5 melanoma, 0.155 µM; with T-47D breast, 0.0769 µM; in the experiment with UO-31 renal, 0.122 µM. Also, the TGI with COLO 205 colon was found to be 0.494 µM; in the experiment on HCT-15 colon it was 2.46 µM; in the experiment on HL-60(TB) leukemia, 7.91 µM; with IGROV1 ovarian, 3.3 µM; in the experiment with NCI-H522 lung, 0.327 µM; with SF-268 CNS it was 6.59 µM. Further, the TGI in the experiment on SK-MEL-28 melanoma was 2.89 µM; in the experiment on SK-MEL-5 melanoma, 0.331 µM; with T-47D breast, 10.5 µM; with UO-31 renal it was 0.532 µM.

Values taken from PubChem BioAssay (NCI).
